From article PMC10959927, “Platinum iodido drugs show potential anti-tumor activity, affecting cancer cell metabolism and inducing ROS and senescence in gastrointestinal cancer cells” (Communications Biology, 2024)
Values joined by “and” are separate entries in the source; they are usually repeats but may differ in a detail not shown here. Equal values may be shown once. Read-outs that look alike come from different tables or passages of the source.

Key:
[1] = system: PANC1 cells; assay: Cell viability, crystal violet staining; conditions: for Cell Viability without NAC: PANC1 cells, Fig. S6A; for IC50: read-out: IC50 concentration (± SD) at 48 h, 48 h
Protocol: (§1) Cell viability was assessed using a crystal violet-based staining method. […] The cells (2 × 10^5) were seeded in 24-multiwell dishes in 0.5 mL of complete medium and incubated overnight. […] After 48 h, cells were fixed with 1% glutaraldehyde (20–30 min), washed with distilled water, and stained with 0.1% crystal violet. […] IC50 were calculated by using GraphPad Prism (version 8.0). Nonlinear regression was used to fit the data to the log (inhibitor) versus response (variable slope).

[2] = system: MKN45 cells; assay: Cell viability, crystal violet staining; conditions: for Cell Viability without NAC: MKN45 cells, Fig. S6A; for IC50: read-out: IC50 concentration (± SD) at 48 h, 48 h
Protocol: as §1

[3] = system: AGS cells; assay: Cell viability, crystal violet staining; conditions: for Cell Viability without NAC: AGS cells, Fig. S6A; for IC50: read-out: IC50 concentration (± SD) at 48 h, 48 h
Protocol: as §1

[4] = system: PANC1 cells; assay: RT-qPCR gene expression (CDKN1A, IL6, MMP1, MAP2K3, SOD1, SOD2, CAT, MKI67, TNFRSF10D); format: cell-based, human
Protocol: (§2) Total cellular RNA was extracted using Tri-Reagent (Life Technologies), following the manufacturer’s instructions. One μg of total RNA was primed with random primers and cDNA synthesized with an M-MLV reverse transcriptase following the manufacturer’s instructions (Promega). Target genes were amplified using a SYBR Green polymerase chain reaction assay, working with the specific primer sets listed in Table 4.
(§3) Thermal cycling of the qPCR reaction was initiated with a denaturation step at 95 °C for 10 min. The process consisted of 40 cycles (denaturation at 95 °C for 15 sec, annealing at 60 °C for 30 sec, and elongation at 75 °C for 30 sec). PCR amplifications were carried out in a StepOne Real‐time PCR System (Applied Biosystems, 4376357). Relative mRNA levels were calculated by the delta-Ct method (2-ΔΔCt), where each 1-Ct difference equals a two-fold change in transcript abundance, using GAPDH as an endogenous gene reference. ΔΔCT represents the difference between the mean ΔCT value of the cells tested and the mean ΔCT value of the calibrator, both calculated for the same PCR run.

[5] = system: MKN45 cells; assay: as above; format: cell-based, human
Protocol: as §2, §3

[6] = system: AGS cells; assay: as above; format: cell-based, human
Protocol: as §2, §3

[7] = system: PANC1 cells; assay: Clonogenic (CFU) assay after 1, 3, 24 h pre-treatment; format: cell-based, human
Protocol: For the clonogenic assay we used two different approaches. […] Then, cells were cultured in a 6-well plate at a very low concentration (2 × 10^3 cells per well) and incubated for 10 days. […] To evaluate the role of ROS in cell proliferation, we supplemented the growth medium with 0.5 mM NAC. After 10 days, the cells were fixed with 1% glutaraldehyde and stained with 0.1% crystal violet. The number of colonies was quantified directly and reflected as CFUs: Colony Forming Units.

[8] = system: PANC1 cells; assay: Ratio GSH/GSSG, colorimetric kit; format: cell-based, human
Protocol: (§4) GSH and GSSG levels were determined in AGS and PANC1 cells after 3 and 24 h of treatment with the compounds (using H2O2 as a positive control) with the Glutathione Colorimetric Detection Kit (ThermoFisher) following the manufacturer’s instructions. Thirty minutes after adding the Colorimetric Detection Reagent and the Reaction Mixture, the absorbance was read at 405 nm. A standard curve was generated with each assay to interpolate the sample results. To measure GSSG, standards and samples must be diluted with the Sample Diluent containing 2-vinylpyridine.

[9] = system: AGS cells; assay: Ratio GSH/GSSG, colorimetric kit; format: cell-based, human
Protocol: as §4

[10] = PANC1, Fig. 3C, replicate values
[11] = MKN45, Fig. 3C, replicate values

CC(C)[NH][Pt@SP1]([I])([I])[NH]C(C)C [I6, cis-[PtI2(isopropylamine)2]]
Cell Viability without NAC ([1]; dose 10 µM): 77.9259 and 88.6605 and 70.8131 | Cell Viability without NAC ([1]; dose 25 µM): 47.4239 and 33.5177 and 35.073 | Cell Viability without NAC ([1]; dose 50 µM): 47.9877 and 31.0793 and 43.6951 | IC50 ([1]; PANC1, NAC (+) 0.5 mM): > 100 µM | IC50 ([1]; PANC1, NAC (-)): 20 µM and 18.8 µM | Cell Viability without NAC ([2]; dose 7.5 µM): 99.1588 and 99.2583 and 108.83 | Cell Viability without NAC ([2]; dose 18.7 µM): 103.308 and 97.338 and 102.412 | Cell Viability without NAC ([2]; dose 37.4 µM): 85.458 and 67.9963 and 88.4728 | Cell Viability without NAC ([2]; dose 56.1 µM): 58.2655 and 42.2365 and 52.8031 | Cell Viability without NAC ([2]; dose 74.8 µM): 41.9977 and 31.3714 and 39.5202 | IC50 ([2]; MKN45, NAC (+) 0.5 mM): > 100 µM | IC50 ([2]; MKN45, NAC (-)): 56.8 ± 1.53 µM | IC25 concentration ([3]; AGS): 15 µM | Cell Viability without NAC ([3]; dose 10 µM): 105.035 | Cell Viability without NAC ([3]; dose 50 µM): 68.1853 | Cell Viability without NAC ([3]; dose 75 µM): 30.4823 | IC50 ([3]; AGS, NAC (+) 0.5 mM): > 100 µM | IC50 ([3]; AGS, NAC (-)): 50 µM and 51.5 µM | MKI67 Fold change vs GAPDH ([4]; PANC1, Fig. S4C): 1.187 fold change and 1.0074 fold change and 1.3984 fold change | TNFRSF10D Fold change vs GAPDH ([4]; PANC1, Fig. S4C): 1.308 fold change and 1.177 fold change and 1.453 fold change | CAT (Fold change vs GAPDH) ([4]; PANC1, mRNA vs Control = 1): 1.283 Fold change and 1.157 Fold change and 1.422 Fold change | SOD1 (Fold change vs GAPDH) ([4]; PANC1, mRNA vs Control = 1): 1.212 Fold change and 1.267 Fold change and 1.413 Fold change | SOD2 (Fold change vs GAPDH) ([4]; PANC1, mRNA vs Control = 1): 0.7792 Fold change and 0.7372 Fold change and 0.8236 Fold change | CDKN1A, Fold change vs GAPDH [4, 10]: 0.7609 fold change and 0.6464 fold change and 0.8957 fold change | IL-6, Fold change vs GAPDH [4, 10]: 2.029 fold change and 0.6879 fold change and 5.985 fold change | MMP-1, Fold change vs GAPDH [4, 10]: 1.768 fold change and 1.572 fold change and 2.113 fold change | Fold change MAP2K3 vs GAPDH ([4]; PANC1, Fig. 4B, replicate values): 1.382 fold change and 1.186 fold change and 1.609 fold change | MKI67 Fold change vs GAPDH ([5]; MKN45, Fig. S4C): 0.2699 fold change and 0.2509 fold change and 0.2902 fold change | TNFRSF10D Fold change vs GAPDH ([5]; MKN45, Fig. S4C): 0.3106 fold change and 0.2548 fold change and 0.3786 fold change | CAT (Fold change vs GAPDH) ([5]; MKN45, mRNA vs Control = 1): 1.125 Fold change and 0.8671 Fold change and 1.459 Fold change | SOD1 (Fold change vs GAPDH) ([5]; MKN45, mRNA vs Control = 1): 1.504 Fold change and 1.381 Fold change and 1.638 Fold change | SOD2 (Fold change vs GAPDH) ([5]; MKN45, mRNA vs Control = 1): 2.631 Fold change and 2.276 Fold change and 3.26 Fold change | CDKN1A, Fold change vs GAPDH [5, 11]: 1.257 fold change and 1.116 fold change and 1.417 fold change | IL-6, Fold change vs GAPDH [5, 11]: 1.298 fold change and 0.9165 fold change and 1.735 fold change | MMP-1, Fold change vs GAPDH [5, 11]: 2.795 fold change and 2.229 fold change and 3.504 fold change | Fold change MAP2K3 vs GAPDH ([5]; MKN45, Fig. 4B, replicate values): 2.445 fold change and 2.003 fold change and 2.985 fold change | CDKN1A, Fold change vs GAPDH ([6]; Fig. 3C, replicate values): 7.239 fold change and 5.782 fold change and 9.064 fold change | IL-6, Fold change vs GAPDH ([6]; Fig. 3C, replicate values): 1.072 fold change and 0.8542 fold change and 0.2227 fold change | MMP-1, Fold change vs GAPDH ([6]; Fig. 3C, replicate values): 528.599 fold change and 466.082 fold change and 599.501 fold change | Fold change MAP2K3 vs GAPDH ([6]; Fig. 4B, replicate values): 14.3277 fold change and 13.4406 fold change and 15.2735 fold change | MKI67 Fold change vs GAPDH ([6]; Fig. S4C): 0.8471 fold change and 0.6697 fold change and 1.072 fold change | TNFRSF10D Fold change vs GAPDH ([6]; Fig. S4C): 16.1948 fold change and 12.3693 fold change and 21.2034 fold change | CAT (Fold change vs GAPDH) ([6]; mRNA vs Control = 1): 0.4383 Fold change and 0.3857 Fold change and 0.4982 Fold change | SOD1 (Fold change vs GAPDH) ([6]; mRNA vs Control = 1): 1.81 Fold change and 1.501 Fold change and 2.182 Fold change | SOD2 (Fold change vs GAPDH) ([6]; mRNA vs Control = 1): 0.6611 Fold change and 0.5938 Fold change and 0.736 Fold change | CFUs ([7]; PANC1, 1 h pre-treatment at IC50, colonies after 10 days): 336 and 264 and 360 | CFUs ([7]; PANC1, 3 h pre-treatment at IC50, colonies after 10 days): 292 and 280 and 324 | GSH/GSSG ([8]; PANC1, 3, relative to Control = 1): 0.8833 and 0.8858 and 1.064 | GSH/GSSG ([8]; PANC1, 24, relative to Control = 1): 0.52 and 0.6511 and 0.6572 | GSH/GSSG ([9]; AGS, 3, relative to Control = 1): 0.7708 and 0.7765 and 0.8015 | GSH/GSSG ([9]; AGS, 24, relative to Control = 1): 0.964 and 0.9646 and 1.003
